What was measured:
[1] = target: cGMP-specific 3',5'-cyclic phosphodiesterase (Homo sapiens, UniProt O76074); test: DRUGMATRIX: Phosphodiesterase PDE5 enzyme inhibition (substrate: [3H]cGMP + cGMP); type: tissue-based, Platelet; settings: platelet; Not Active = under 50% inhibition at 10 µM
[2] = DRUGMATRIX: Sodium/nucleoside co-transporter radioligand binding (ligand: nitrobenzylthioinosine); type: cell membranes, Cavia porcellus, Dunkin-Hartley, Cerebral cortex, Membrane; settings: Not Active = under 50% inhibition at 10 µM
Melanocortin receptor 4 = Melanocortin receptor 4 (Homo sapiens, UniProt P32245); type: cell membranes, HEK293, Membrane; also: in other assays of this panel Not Active means under 50% inhibition at 10 µM
[3] = target: Vascular endothelial growth factor receptor 1 (Homo sapiens, UniProt P17948); test: biochemical; type: cell-based, HUVEC; settings: huvec; also: in other assays of this panel Not Active means under 50% inhibition at 10 µM
[4] = DRUGMATRIX: Purinergic P2X radioligand binding (ligand: [3H] alpha, beta-Methylene-ATP); type: cell membranes, Oryctolagus cuniculus, New Zealand albino, Urinary bladder, Membrane; settings: Not Active = under 50% inhibition at 10 µM
[5] = target: T1, Muscarinic acetylcholine receptor M5 (Homo sapiens, UniProt P08912); type: cell membranes, CHO-K1, Membrane; also: in other assays of this panel Not Active means under 50% inhibition at 10 µM
T1 sequence (P08912 whole entry): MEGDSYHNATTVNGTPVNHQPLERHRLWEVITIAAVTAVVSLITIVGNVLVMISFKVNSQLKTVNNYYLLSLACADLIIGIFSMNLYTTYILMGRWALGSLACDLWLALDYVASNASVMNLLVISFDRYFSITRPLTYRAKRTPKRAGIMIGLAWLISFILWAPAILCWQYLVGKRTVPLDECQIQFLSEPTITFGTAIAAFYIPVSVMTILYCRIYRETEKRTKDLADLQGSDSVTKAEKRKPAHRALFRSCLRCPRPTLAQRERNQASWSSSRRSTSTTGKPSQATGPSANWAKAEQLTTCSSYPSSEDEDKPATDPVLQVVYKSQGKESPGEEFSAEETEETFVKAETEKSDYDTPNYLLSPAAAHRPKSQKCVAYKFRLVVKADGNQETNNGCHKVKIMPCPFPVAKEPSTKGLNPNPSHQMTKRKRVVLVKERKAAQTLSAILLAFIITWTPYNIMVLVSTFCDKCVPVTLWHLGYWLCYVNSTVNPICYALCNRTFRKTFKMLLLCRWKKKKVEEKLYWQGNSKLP

Glycine receptor = Glycine receptor (Rattus norvegicus, UniProt P22771+P24524+P07727+P20781); type: cell membranes, Wistar, Spinal cord, Membrane; also: in other assays of this panel Not Active means under 50% inhibition at 10 µM
[6] = target: T2, Cholecystokinin receptor type A (Homo sapiens, UniProt P32238); type: cell membranes, Membrane; settings: 1321-n1; also: in other assays of this panel Not Active means under 50% inhibition at 10 µM
T2 sequence (P32238 whole entry): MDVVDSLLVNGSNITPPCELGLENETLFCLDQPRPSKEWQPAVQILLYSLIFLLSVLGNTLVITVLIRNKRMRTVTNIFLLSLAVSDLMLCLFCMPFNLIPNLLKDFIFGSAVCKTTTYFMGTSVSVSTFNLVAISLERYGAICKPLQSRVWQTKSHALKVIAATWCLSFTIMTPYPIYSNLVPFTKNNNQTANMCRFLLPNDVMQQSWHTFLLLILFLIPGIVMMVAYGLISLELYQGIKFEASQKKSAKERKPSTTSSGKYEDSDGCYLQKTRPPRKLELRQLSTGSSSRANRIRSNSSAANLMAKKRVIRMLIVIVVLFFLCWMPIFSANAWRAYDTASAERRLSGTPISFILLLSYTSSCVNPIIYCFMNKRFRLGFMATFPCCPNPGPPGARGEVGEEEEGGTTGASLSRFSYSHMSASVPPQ

Melanocortin receptor 4, sequence (P32245 whole entry): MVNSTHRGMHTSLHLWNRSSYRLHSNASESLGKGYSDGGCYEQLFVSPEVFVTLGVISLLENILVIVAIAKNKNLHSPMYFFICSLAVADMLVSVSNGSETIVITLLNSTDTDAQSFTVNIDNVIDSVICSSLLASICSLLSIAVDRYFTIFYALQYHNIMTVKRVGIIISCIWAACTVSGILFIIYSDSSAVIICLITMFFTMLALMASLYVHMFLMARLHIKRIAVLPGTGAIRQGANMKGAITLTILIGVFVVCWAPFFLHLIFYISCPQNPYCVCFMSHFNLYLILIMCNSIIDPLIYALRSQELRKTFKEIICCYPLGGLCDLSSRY
Vascular endothelial growth factor receptor 1, sequence (P17948 whole entry): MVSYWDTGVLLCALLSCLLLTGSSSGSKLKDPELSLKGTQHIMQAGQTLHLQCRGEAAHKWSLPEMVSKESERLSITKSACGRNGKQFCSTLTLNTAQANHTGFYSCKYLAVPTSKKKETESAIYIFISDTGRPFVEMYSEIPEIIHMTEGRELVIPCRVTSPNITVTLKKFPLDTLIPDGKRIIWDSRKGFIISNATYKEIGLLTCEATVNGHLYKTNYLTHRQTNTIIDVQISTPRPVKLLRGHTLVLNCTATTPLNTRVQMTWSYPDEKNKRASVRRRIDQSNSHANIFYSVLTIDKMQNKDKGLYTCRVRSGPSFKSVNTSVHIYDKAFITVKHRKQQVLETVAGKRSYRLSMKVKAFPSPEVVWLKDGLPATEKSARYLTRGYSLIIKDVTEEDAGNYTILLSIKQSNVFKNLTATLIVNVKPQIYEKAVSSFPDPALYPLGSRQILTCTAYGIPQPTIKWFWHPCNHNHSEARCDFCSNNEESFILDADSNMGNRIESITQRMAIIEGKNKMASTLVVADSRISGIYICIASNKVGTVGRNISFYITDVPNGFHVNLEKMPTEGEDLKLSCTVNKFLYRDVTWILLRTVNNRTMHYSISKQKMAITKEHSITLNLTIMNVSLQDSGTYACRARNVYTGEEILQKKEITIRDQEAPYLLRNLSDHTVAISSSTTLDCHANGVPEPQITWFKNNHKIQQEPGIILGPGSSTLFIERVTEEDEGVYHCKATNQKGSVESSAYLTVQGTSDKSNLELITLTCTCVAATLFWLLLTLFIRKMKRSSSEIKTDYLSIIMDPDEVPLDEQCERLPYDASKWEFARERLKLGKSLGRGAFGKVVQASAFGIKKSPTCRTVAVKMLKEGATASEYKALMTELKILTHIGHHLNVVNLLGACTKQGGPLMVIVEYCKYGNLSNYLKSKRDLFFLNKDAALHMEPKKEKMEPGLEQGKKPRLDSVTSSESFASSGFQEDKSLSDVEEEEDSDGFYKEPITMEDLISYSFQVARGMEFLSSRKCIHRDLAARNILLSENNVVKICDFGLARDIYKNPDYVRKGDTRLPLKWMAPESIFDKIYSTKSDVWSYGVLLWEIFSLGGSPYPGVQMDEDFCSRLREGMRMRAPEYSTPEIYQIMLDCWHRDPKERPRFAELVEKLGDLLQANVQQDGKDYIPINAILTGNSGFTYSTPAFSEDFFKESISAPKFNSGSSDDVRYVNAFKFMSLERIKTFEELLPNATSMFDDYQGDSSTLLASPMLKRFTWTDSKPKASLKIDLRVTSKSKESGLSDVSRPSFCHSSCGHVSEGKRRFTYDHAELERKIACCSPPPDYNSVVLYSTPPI

Row | Compound | IC50 [1] | IC50 [2] | Ki [2] | IC50 (Melanocortin receptor 4; hek293) | IC50 [3] | IC50 [4] | Ki [4] | IC50 ([5]; cho-k1) | IC50 (Glycine receptor) | IC50 [6] | IC50 ([5]; read-out: IC50) [nM] | Ki ([5]; read-out: Ki) [nM] | Ki [1] | Ki (Melanocortin receptor 4; hek293) | Ki [3] | Ki ([5]; cho-k1) | Ki (Glycine receptor) | Ki [6] | IC50 (Melanocortin receptor 4; read-out: IC50) [µM] | Ki (Melanocortin receptor 4; read-out: Ki) [µM]
1 | O=C(Oc1ccccc1C(=O)O)c1ccccc1O [SALSALATE] | Not Active | Not Active | Not Active | Not Active | Not Active | Not Active | Not Active | Not Active | Not Active | Not Active | – | – | – | – | – | – | – | – | – | –
2 | CNC1(c2ccccc2Cl)CCCCC1=O (stereo not drawn) [KETAMINE] | Not Active | Not Active | Not Active | Not Active | Not Active | Not Active | Not Active | Not Active | Not Active | Not Active | – | – | – | – | – | – | – | – | – | –
3 | Fc1ccc(C(c2ccc(F)cc2)N2CCN(C/C=C/c3ccccc3)CC2)cc1 [FLUNARIZINE] | Not Active | – | – | Not Active | Not Active | – | – | – | Not Active | Not Active | – | – | – | – | – | – | – | – | – | –
4 | CN[C@H]1CC[C@@H](c2ccc(Cl)c(Cl)c2)c2ccccc21 [SERTRALINE] | Not Active | – | – | Not Active | Not Active | – | – | – | Not Active | Not Active | 507 | 365 | – | – | – | – | – | – | – | –
5 | O=C(Nc1ccc(Br)cc1)c1cc(Br)cc(Br)c1O [TRIBROMSALAN] | Not Active | Not Active | Not Active | Not Active | Not Active | Not Active | Not Active | Not Active | Not Active | Not Active | – | – | – | – | – | – | – | – | – | –
6 | CC(C)NCC(O)c1ccc(O)c(O)c1 (stereo not drawn) [ISOPROTERENOL] | Not Active | Not Active | Not Active | Not Active | Not Active | Not Active | Not Active | Not Active | Not Active | Not Active | – | – | – | – | – | – | – | – | – | –
7 | Cc1cccc(C)c1OCC(C)N (stereo not drawn) [MEXILETINE] | Not Active | Not Active | Not Active | Not Active | Not Active | Not Active | Not Active | Not Active | Not Active | Not Active | – | – | – | – | – | – | – | – | – | –
8 | MANGANESE CHLORIDE ANHYDROUS | Not Active | Not Active | Not Active | Not Active | Not Active | Not Active | Not Active | Not Active | Not Active | Not Active | – | – | Not Active | Not Active | Not Active | Not Active | Not Active | Not Active | – | –
9 | CCN(CC)CCNC(=O)c1cc(S(C)(=O)=O)ccc1OC [TIAPRIDE] | Not Active | Not Active | Not Active | Not Active | Not Active | Not Active | Not Active | Not Active | Not Active | Not Active | – | – | – | – | – | – | – | – | – | –
10 | Clc1ccc(COC(Cn2ccnc2)c2ccc(Cl)cc2Cl)cc1 (stereo not drawn) [ECONAZOLE] | Not Active | – | – | Not Active | Not Active | – | – | Not Active | Not Active | Not Active | – | – | – | – | – | – | – | – | – | –
11 | COc1c2occc2cc2ccc(=O)oc12 [METHOXSALEN] | Not Active | Not Active | Not Active | Not Active | Not Active | Not Active | Not Active | Not Active | Not Active | Not Active | – | – | – | – | – | – | – | – | – | –
12 | O.O.O.O.O.O.[Cl-].[Cl-].[Sr+2] [STRONTIUM CHLORIDE HEXAHYDRATE] | Not Active | Not Active | Not Active | Not Active | Not Active | Not Active | Not Active | Not Active | Not Active | Not Active | – | – | – | – | – | – | – | – | – | –
13 | COc1ccc(CCN(C)CCCC(C#N)(c2ccc(OC)c(OC)c2)C(C)C)cc1OC (stereo not drawn) | Not Active | Not Active | Not Active | Not Active | Not Active | Not Active | Not Active | Not Active | Not Active | Not Active | – | – | – | – | – | – | – | – | – | –
14 | CCN(CC)CCOc1ccc(/C(=C(/Cl)c2ccccc2)c2ccccc2)cc1 [ENCLOMIPHENE] | Not Active | – | – | Not Active | Not Active | – | – | – | Not Active | Not Active | 1770 | 1270 | – | – | – | – | – | – | – | –
15 | Clc1ccccc1CN1CCc2sccc2C1 [TICLOPIDINE] | Not Active | Not Active | Not Active | Not Active | Not Active | Not Active | Not Active | Not Active | Not Active | Not Active | – | – | – | – | – | – | – | – | – | –
16 | CC(C)Oc1ccc2c(=O)c(-c3ccccc3)coc2c1 [IPRIFLAVONE] | Not Active | Not Active | Not Active | Not Active | Not Active | Not Active | Not Active | Not Active | Not Active | Not Active | – | – | – | – | – | – | – | – | – | –
17 | COc1cc2nc(N3CCN(C(=O)C4CCCO4)CC3)nc(N)c2cc1OC (stereo not drawn) [TERAZOSIN] | Not Active | Not Active | Not Active | Not Active | Not Active | Not Active | Not Active | Not Active | Not Active | Not Active | – | – | – | – | – | – | – | – | – | –
18 | C[C@H]1C[C@@H]2[C@H]([C@@H](O)C[C@@]3(C)[C@H]2CC[C@]3(O)C(=O)CO)[C@@]2(C)C=CC(=O)C=C12 [METHYLPREDNISOLONE] | Not Active | Not Active | Not Active | Not Active | Not Active | Not Active | Not Active | Not Active | Not Active | Not Active | – | – | – | – | – | – | – | – | – | –
19 | NC1CCN(c2nc3c(cc2F)c(=O)c(C(=O)O)cn3-c2ccc(F)cc2F)C1 (stereo not drawn) [TOSUFLOXACIN] | Not Active | Not Active | Not Active | Not Active | Not Active | Not Active | Not Active | Not Active | Not Active | Not Active | – | – | – | – | – | – | – | – | – | –
20 | SODIUM ORTHOVANAD | Not Active | Not Active | Not Active | Not Active | Not Active | Not Active | Not Active | Not Active | Not Active | Not Active | – | – | Not Active | Not Active | Not Active | Not Active | Not Active | Not Active | – | –
21 | Cc1c(C)c2c(c(C)c1O)CCC(C)(CN1CCN(c3cc(N4CCCC4)nc(N4CCCC4)n3)CC1)O2 (stereo not drawn) | Not Active | Not Active | Not Active | – | Not Active | Not Active | Not Active | Not Active | Not Active | Not Active | – | – | – | – | – | – | – | – | 58 | 55.8
22 | O=C(O)c1cn(-c2ccc(F)cc2)c2cc(N3CCNCC3)c(F)cc2c1=O [SARAFLOXACIN] | Not Active | Not Active | Not Active | Not Active | Not Active | Not Active | Not Active | Not Active | Not Active | Not Active | – | – | – | – | – | – | – | – | – | –
23 | Nc1cc(N2CCCCC2)nc(N)[n+]1[O-] [MINOXIDIL] | Not Active | Not Active | Not Active | Not Active | Not Active | Not Active | Not Active | Not Active | Not Active | Not Active | – | – | – | – | – | – | – | – | – | –
24 | CN(C)CCOC(c1ccccc1)c1ccccc1 [DIPHENHYDRAMINE] | Not Active | – | – | Not Active | Not Active | – | – | – | Not Active | Not Active | – | – | – | – | – | – | – | – | – | –
25 | CNCCC(Oc1ccc(C(F)(F)F)cc1)c1ccccc1 (stereo not drawn) [FLUOXETINE] | Not Active | – | – | Not Active | Not Active | – | – | – | Not Active | Not Active | – | – | – | – | – | – | – | – | – | –
26 | Cc1ccc(NC(=O)c2ccc(CN3CCN(C)CC3)cc2)cc1Nc1nccc(-c2cccnc2)n1 [IMATINIB] | Not Active | – | – | Not Active | – | – | – | Not Active | Not Active | Not Active | – | – | – | – | – | – | – | – | – | –

— ChEMBL document CHEMBL1909046, “DrugMatrix in vitro pharmacology data”
